{"source": "patent US20190183922A1", "about": "“NOVEL ACTIVE IMMUNOMODULATORY AGENT AND COMPOSITION CONTAINING SAME” (UNIVERSITE CLERMONT AUVERGNE, priority 2016, published 2019)", "tested_on": "co-culture of human dermal endothelial cells (HMVECs) and normal human dermal fibroblasts (NHDFs)", "assay": "Formation of pseudotubes in an HMVEC+NHDF co-culture (anti-vWF immunolabelling, image analysis)", "assay_type": "cell-based", "protocol": "The effects of the high-molecular-weight sulphated polysaccharide (HMWP) on the formation of pseudotubes was studied in a co-culture of human dermal endothelial cells (HMVECs) and normal human dermal fibroblasts (NHDFs), in basal condition or stimulated by VEGF (analysis by immunolabelling in situ).\nThe HMVEC and NHDF cells in co-culture were seeded in 96-well plates and cultured for 24 hours in culture medium.\nThe culture medium used is as follows: • EBM-2 (Endothelial cell basal medium 2) supplemented with 5% foetal calf serum (FCS), rhEGF, rhFGF, R3 IGF-1, hydrocortisone, vitamin C, gentamycin, • DMEM supplemented with 2 mM L-glutamine, 50 U/ml penicillin, 50 μg/ml streptomycin and 10% FCS.\nThe medium was then replaced with test medium containing or not containing (control) the compound to be tested and/or the VEGF inductor reference tested at 100 ng/ml; the compound was tested simultaneously in basal and stimulated condition (in the absence and in the presence of VEGF).\nThe test medium used was as follows: • EBM-2 (Endothelial cell basal medium 2) supplemented with rhEGF, rhFGF, R3 IGF-1, hydrocortisone, vitamin C, gentamycin, • DMEM supplemented with 2 mM L-glutamine, 50 U/ml penicillin, 50 μg/ml streptomycin and 1% FCS.\nThe cells were then incubated for 7 days, repeating the treatment after incubating for 72 hours. All the experimental conditions were produced in triplicate (n=3).\nAfter incubation, the culture medium was removed and the cells were rinsed, fixed and permeabilized. The cells were then labelled with anti-VWF (Von Willebrand Factor) primary antibody. […] Simultaneously, the cell nuclei were coloured with Hoechst 33258 (bis-benzimide).\nThe formation of the pseudotubes was observed using a NIKON Diaphot 300 microscope (×4 objective lens). The digital images (1 photo per well) were then recorded with a NIKON DS-Ri1 camera and the NIS-Elements 4.13.04 software.\nThe labelling was quantified by measuring the entire surface of the pseudotubes using ImageJ software.\nThe formation of pseudotubes in the co-culture of endothelial cells (HMVECs) and dermal fibroblasts (NHDFs) after incubating for 7 days was measured by image analysis following immunolabelling with an anti-vWF antibody, the vWF being specifically expressed by the HMVEC cells.\nThe stimulation percentage is calculated according to the following formula: […]\nThe inhibition percentage is calculated according to the following formula: […]", "key": {"[1]": {"settings": "VEGF inductor reference 100 ng/ml, 7 days"}}, "note": "Where “and” joins values, the source holds several entries; their conditions need not be identical. Identical values can stand only once."}
{"substance": "VEGF", "values": [{"measurement": "% Control", "setting": "[1]", "result": 1759, "unit": "%"}, {"measurement": "% Stimulation", "setting": "[1]", "result": 1659, "unit": "%"}, {"measurement": "Surface of the pseudotubes", "setting": "VEGF inductor reference 100 ng/ml, 7 days, individual wells", "result": "2.15 mm^2 and 2.52 mm^2 and 1.84 mm^2"}, {"measurement": "Average Surface", "setting": "VEGF inductor reference 100 ng/ml, 7 days, n=3", "result": 2.17, "unit": "mm^2"}, {"measurement": "Organization of the endothelial cells into pseudotubes", "setting": "reference VEGF 100 ng/ml", "result": "clearly led to an organization of the endothelial cells into pseudotubes"}]}
